This note sets out measurements from patent US20240240209A1, “SYNTHESIS OF ENANTIOPURE CIS-A-IRONE FROM A RENEWABLE CARBON SOURCE” (Agency for Science, Technology and Research, priority 2021, published 2024).

The test system of one assay is pMT6. Description: Methylation and cyclization of structurally similar terpenoids by E. coli cell lysate overexpressing pMT6. It is filed as biochemical, Streptomyces blastmyceticus. The settings on record: GFP lysate as control. The protocol: Using E. coli cell lysate overexpressing pMT6, a range of structurally similar terpenoids for methylation and cyclization reaction was assayed (FIG. 21a). E. coli lysate overexpressing green fluorescence protein was used as a control. […] Citral was not stable and was reduced to geraniol in the presence of cell lysate. […] Compound identity was searched against the National Institute of Standards and Technology (NIST) library. […] Lastly, for the monoterpene ketone, geranylacetone, with saturated C7-C8 bond, multiple methylated products were detected based on the molecular ion.

A further assay has as its target pMT7 (Streptomyces blastmyceticus, UniProt A0A077K7L1, A202L/L180A/L273V/S182E/Y200F/Y65F). Description: biochemical. The protocol: (§1) It was calculated by dividing the pMT7 activity where no additive was added. […] It was calculated by dividing the pMT7 and pMT10 activity where no additive was added. […] All the purified enzyme reactions were done in triplicates. […] The bar chart represents the mean value of replicated reactions.
The steady-state kinetic parameters of pMT7 were determined (Table 3). […] Since pMT7 is an hexamer in solution^10, its oligomeric state before and after the reaction was examined.
(§2) Following enzyme purification, a 100 μl enzymatic reaction was setup with a final concentration of 0.5 mg/ml of enzyme, 40 mg/L psi-ionone, 0.2 mM SAM, 100 mM Tris (pH 7), 10 mM MgCl2 and 15 mM NaCl. The reaction was done in 0.2 ml PCR strips and incubated at 28° C., 1200 rpm overnight. Alongside, a control without enzyme (with 40% glycerol only) was included as negative control. The next day, cis-α-irone was extracted with 100 μl of ethyl acetate and 50 μl organic layer taken for GCMS analysis. For enzyme characterization, similar enzymatic reaction was performed, with varying concentration of psi-ionone (2-40 mg/L) and SAM (10-100 μM), and the reaction was stopped after 2 h incubation at 28° C. to ensure the enzymatic conversion is still within linear range.

The target of another assay is pMT10 (Streptomyces blastmyceticus, UniProt A0A077K7L1, A202L/C156A/L180A/L273V/S182E/T91P/Y200F/Y65F). Description: biochemical. The protocol: as §1, §2
Sequence of pMT10 (A0A077K7L1 entry or part of it Y65F/T91P/C156A/L180A/S182E/Y200F/A202L/L273V): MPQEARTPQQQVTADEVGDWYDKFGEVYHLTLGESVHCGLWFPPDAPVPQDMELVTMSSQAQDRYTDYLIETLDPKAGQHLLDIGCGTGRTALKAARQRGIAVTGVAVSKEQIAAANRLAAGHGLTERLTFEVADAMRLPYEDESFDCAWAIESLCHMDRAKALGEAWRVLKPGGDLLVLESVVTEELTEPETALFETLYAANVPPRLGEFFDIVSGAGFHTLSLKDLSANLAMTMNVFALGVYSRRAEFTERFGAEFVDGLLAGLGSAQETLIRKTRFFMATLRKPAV
Assay [1] concerns the target T1, Streptomyces blastmyceticus O-methyltransferase TleD (pMT1, SEQ ID No. 3) variant pMT7, Y200F S182E L273V L180A A202L Y65F, SEQ ID No. 9 (Streptomyces blastmyceticus, UniProt A0A077K7L1, A202L/L180A/L273V/S182E/Y200F/Y65F).
T1 sequence (A0A077K7L1 1-289 Y65F/L180A/S182E/Y200F/A202L/L273V): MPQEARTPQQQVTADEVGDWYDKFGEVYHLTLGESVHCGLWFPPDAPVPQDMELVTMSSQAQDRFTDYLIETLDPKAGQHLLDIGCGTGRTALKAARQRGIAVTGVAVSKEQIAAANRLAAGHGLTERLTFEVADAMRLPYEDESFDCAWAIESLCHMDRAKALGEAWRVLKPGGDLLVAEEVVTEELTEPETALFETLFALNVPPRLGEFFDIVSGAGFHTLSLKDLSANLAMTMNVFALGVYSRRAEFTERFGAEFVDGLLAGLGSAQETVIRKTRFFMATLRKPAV
Description: Steady-state kinetics of purified pMT7. The format is biochemical. Particulars: pH 7, 28° C., 2 h. The protocol:
(§3) His-tag protein purification was carried out according to the manufacturer's instruction (Cube Biotech). For each enzyme, it was overexpressed in 200 ml of ZYM autoinduction media with 5 mM lactose at 20° C. for 36 hrs. Following that, cells were pelleted and resuspended with 10 ml of His-binding buffer (50 mM Tris, pH 8, 0.5M NaCl and 20 mM imidazole) supplemented with 1 mg/ml lysozyme and 3 U/ml of benzonase nuclease (Merck) and treated for 1 hour (hr) at 20° C., 300 rpm. The cells were further lysed by 2 cycles of freeze-thawing with freezing at −80° C. for 4 hrs and thawing at room temperature for 45 mins. The supernatant (soluble fraction) was obtained by centrifuging at 15,000 g for 30 mins at 4° C. […] Protein quantification and purity were determined through micro BCA assay (Pierce) and running SDS-PAGE, respectively.
(§4) To determine the purified enzyme kinetics and in vivo production, the reaction mixture was extracted with 0.5× or 1× volume of ethyl acetate and the organic phase was diluted appropriately before subjected to GCMS analysis. The samples were analyzed on an Agilent Intuvo 9000 GC system equipped with Agilent DB-WAX Ultra Inert Intuvo GC column (30 m×250 μm×0.25 μm) and Agilent 5977B mass spectrometry with high efficiency source. […] The concentration of psi-ionone and irone were calculated by interpolating with a standard curve prepared by synthetic standards.

Assay [2] addresses T2, Streptomyces blastmyceticus O-methyltransferase TleD (pMT1, SEQ ID No. 3) variant pMT10, Y200F S182E L273V L180A A202L Y65F C156A T91P, SEQ ID No. 12 (Streptomyces blastmyceticus, UniProt A0A077K7L1, A202L/C156A/L180A/L273V/S182E/T91P/Y200F/Y65F).
T2 sequence (A0A077K7L1 1-289 Y65F/T91P/C156A/L180A/S182E/Y200F/A202L/L273V): T1 sequence (A0A077K7L1 1-289 Y65F/L180A/S182E/Y200F/A202L/L273V) with T91P, C156A
Description: Steady-state kinetics of purified pMT10. It is filed as biochemical. The settings on record: pH 7, 28° C., 2 h, psi-ionone 2-40 mg/L, SAM 10-100 μM. The protocol:
as §3, §4

Setting [3] is: SAH analogues (0-200 μM) or excess α-irone supplemented.

Where a chain is given by its changes, count along the chain named.

Sequence of pMT7 (A0A077K7L1 entry or part of it Y65F/L180A/S182E/Y200F/A202L/L273V): as the sequence (A0A077K7L1 entry or part of it Y65F/T91P/C156A/L180A/S182E/Y200F/A202L/L273V) above

Consider `CC(C)=CCCC(C)=CC=O` [Citral], for which the “methylated products in pMT6 reaction (SPME-GCMS)” value (“methylated products” below) in the assay with pMT6 is “not stable”.
Consider `Nc1ncnc2c1ncn2[C@@H]1O[C@H](CSCC[C@H](N)C(=O)O)[C@@H](O)[C@H]1O` [SAH, S-adenosyl-L-homocysteine], for which the IC50 (as a rule, the point on the concentration scale where inhibition reaches its midpoint) against pMT7 came out at 4.9 µM; against pMT10, 3.1 µM. For the same molecule, at pMT7 (2 μM SAH supplemented), the “effect on pMT7 activity” value is on record as “led to a reduction in pMT7 activity”. The “effect on pMT7 methyltransferase activity” value on pMT7 (20 µM SAH supplemented) is recorded as “nearly abolished the methyltransferase activity”.
As to `C[S+](CC[C@H](N)C(=O)[O-])C[C@H]1O[C@@H](n2cnc3c(N)ncnc32)[C@H](O)[C@@H]1O` (stereo partly drawn) [SAM, S-adenosylmethionine], the Km (usually the concentration of substrate that gives half-maximal velocity) turned out to be 54.6 µM in assay [1] (psi-ionone 2-40 mg/L, SAM 10-100 μM) and 30.5 ± 1.3 µM in assay [2].
In the case of `Nc1ncnc2nc[nH]c12` [adenine], the “effect on pMT7 methyltransferase activity” value at pMT7 (setting [3]) is on record as “did not alter the methyltransferase activity significantly”.
On to `Nc1ncnc2c1ncn2[C@@H]1O[C@H](CO)[C@@H](O)[C@H]1O` [adenosine], for which the “effect on pMT7 methyltransferase activity” value on pMT7 (setting [3]) is given as “did not alter the methyltransferase activity significantly”.
With `CC(C)=CCC/C(C)=C/CO` [geraniol], the “methylated products” value with pMT6 is “detected methylated products”.
Turning to `CC(=O)CC/C=C(\C)CCC=C(C)C` [geranylacetone], the “methylated products” value with pMT6 is “detected methylated products”.
Consider `N[C@@H](CCS)C(=O)O` [homocysteine], for which the “effect on pMT7 methyltransferase activity” value at pMT7 (setting [3]) is on record as “did not alter the methyltransferase activity significantly”.
Turning to `C=CC(C)(O)CCC=C(C)C` (stereo not drawn) [linalool], the “methylated products” value in the assay with pMT6 is “detected methylated products”.
`CC(=O)/C=C/C=C(\C)CCC=C(C)C` [psi-ionone]: the kcat in assay [1] (Table 3) is listed as 4.4 ± 0.2 ×10^3 h^−1.
With `CC(=O)/C=C/C1C(C)=CCC(C)C1(C)C` (stereo not drawn) [α-irone], the “effect on pMT7 methyltransferase activity” value on pMT7 (setting [3]) is reported as “did not alter the methyltransferase activity significantly”.
